pIC50: −log10 of the molar value. Several values for one entry are separate records, joined by “and”; a condition that tells them apart may be missing. Equal values may be shown once. Read-outs that look alike come from different tables or passages of the source.
Columns and labels:
[1] = tested on: client owned dogs with a history of chronic atopic dermatitis; experiment: Study in client owned dogs with chronic atopic dermatitis (Table 1); assay type: in vivo, dog; conditions: 0.19-0.39 mg/kg BID oral for 28 days; Day 1, 14 and 28
Protocol: A study was conducted in client owned dogs. Fifty-six dogs, greater than 1 year of age, weighing 2-50 kg, with a history of chronic atopic dermatitis were enrolled at three veterinary schools. The study design is illustrated in the following Table 1: […]

[2] = tested on: dogs with moderate to severe itching (pruritus); experiment: Pruritus Study A (placebo controlled); assay type: in vivo, dog
Text: (§1) Investigators attributed pruritus to one or more of the following: allergic dermatitis, atopic dermatitis, food allergy, contact allergy, flea allergy, sarcoptic mange. Dogs were six months of age or older, weighed a minimum of 3 kg and were physically healthy apart from their pruritic condition. Dogs were flea-free, and appropriate preventatives and treatments were used throughout the studies. The studies were designed as follows in Table 2 and Table 3.

[3] = tested on: dogs with moderate to severe itching (pruritus); experiment: Pruritus Study B (prednisolone controlled); assay type: in vivo, dog; conditions: day 14; oral BID for 14 days (prednisolone 0.25-0.5 mg/kg, compound 1 0.4-0.6 mg/kg); time zero about 75 mm
Text: as §1

[4] = tested on: client-owned dogs with chronic non-seasonal atopic dermatitis; assay type: in vivo; conditions: 0.4-0.6 mg/kg BID oral
Text: (§2) Minimum CADESI scores were assigned by a dermatologist or veterinarian (CADESI-01 score of 25 or CADESI-3 score of 60). Dogs were either 1 year of age or 6 months of age or older and weighed a minimum of 3 kg and were physically healthy apart from their atopic disease. The dogs had at least a 1 year or 6 month documented history of chronic non-seasonal atopic dermatitis. The dogs were flea free and appropriate preventatives and treatments were used throughout the study.
In these studies, animals were administered from 0.4-0.6 mg/kg body weight of a JAK inhibitor BID for up to 112 days.

laboratory dogs = experiment: High dose BID safety study in 6 month old laboratory dogs; assay type: in vivo, dog
Protocol: A high dose (3 mg/kg BID) was given to 6 month old laboratory dogs.

[5] = tested on: dogs with chronic non-seasonal atopic dermatitis; experiment: Atopic Dermatitis Dose Selection Study; assay type: in vivo, dog; conditions: oral
Text: as §2

laboratory-bred dogs = tested on: laboratory-bred dogs
Protocol: A target animal safety program (8 studies) was conducted. 131 laboratory-bred dogs were exposed to N-methyl-1-{trans-4-[methyl(7H-pyrrolo[2,3-d]pyrimidin-4-yl)amino]cyclohexyl}methanesulfonamide maleate (i.e. N-methyl-1-{trans-4-[methyl(7H-pyrrolo[2,3-d]pyrimidin-4-yl)amino]cyclohexyl}methanesulfonamide maleic acid salt maleic acid salt). Doses ranged from 0.5 mg/kg/day (0.25 mg/kg BID) to 18 mg/kg/day (9 mg/kg BID). Duration of exposure ranged from 10 days to 6 months. Recovery periods were incorporated into two studies. A series of early studies were designed to ensure the safety of client-owned dogs in the field safety and efficacy studies.
In a “margin of safety” study, the following treatments were given: […]

[6] = dog, in vivo
Protocol: All doses are expressed in terms of mg/kg of free base. Serial blood samples for determination of pharmacokinetics were collected following Compound 1 administration. Blood samples at 0, 1, 4, 8, and 12 hours post dose were collected via jugular venipuncture into K2EDTA tubes and placed on ice until centrifuged. Harvested plasma was stored at approximately −20° C. until analysis.
Thirty-two beagle dogs (16 female, 16 male) were allocated to four treatment groups. Dogs in Treatment 1 received placebo capsule (0 mg/kg) orally. […] All dogs received a twice daily doses 0, 0.6, 1.8, and 3.0 mg/kg for weeks 1 through 6 and a single daily doses of 0, 0.6, 1.8, and 3.0 mg/kg for weeks 7 through 26. On pharmacokinetic sample collection days, dogs were fasted the previous night and fed four hours post dose administration. To calculate AUC0-24 for study days 53 and 168, steady-state was assumed and the 24 hour concentration was assumed to be equal to the 0 hour concentration, and used for the 0 hour concentration. As the actual doses of Compound 1 varied from the group target doses, the pharmacokinetic variables AUC0-τ, (AUC of the dosing interval), Cmax, and Cτ (trough concentration) were all normalized to the group target dose.

in vitro = conditions: human, Caco-2
Text: The in vitro permeability of Compound 1 was experimentally determined in a Caco-2 cell monolayer study. […] The dog gastric pH has been reported to range from 1.08 to 2.0 (Sagawa, Li et al. 2009; Mahar, Portelli et al. 2012).

[7] = tested on: cytokine receptors that share the common gamma chain (e.g. IL-2R, IL-4R); experiment: Inhibition of cytokine function, common gamma chain receptors; assay type: cell-based; conditions: read-out: IC50's of representative family members
[8] = tested on: JAK-1 dependent cytokines (e.g. IL-2, IL-4, IL-6, IL-13, and IL-31); experiment: Inhibition of JAK-1 dependent cytokines; assay type: cell-based
[9] = tested on: cytokines that are exclusively dependent on JAK2 function (EPO, GM-CSF); experiment: Inhibition of cytokines exclusively dependent on JAK2; assay type: cell-based; conditions: ratio of IC50's
IL-12 and IL-23 = experiment: Inhibition of cytokines that utilize JAK2/TYK2 and not JAK1; assay type: cell-based
[10] = tested on: cytokine receptors that share the gp130 subunit (e.g. IL-6) as well as IL-13; experiment: Inhibition of gp130 subunit cytokine receptors and IL-13; assay type: cell-based
[11] = tested on: the IL-10 family, the IL-12 family (that share the p40 subunit), or the IL-3 family; experiment: Inhibition of IL-10, IL-12 and IL-3 family cytokines; assay type: cell-based
[12] = dog, in vivo; remark: listed apart in the source
[13] = pH 5.5
physchem = conditions: pH 3.8
[14] = Other pharmacokinetic studies in dogs (IV and PO); conditions: for bioavailability: po

In the case of CNS(=O)(=O)C[C@H]1CC[C@H](N(C)c2ncnc3[nH]ccc23)CC1.O=C(O)/C=C\C(=O)O [Compound 1, N-methyl-1-{trans-4-[methyl(7H-pyrrolo[2,3-d]pyrimidin-4-yl)amino]cyclohexyl}methanesulfonamide maleate], the “reduction in owner assessed VAS pruritus scores compared with placebo” value [1] was “significantly (p≦0.07) different”, the “owner VAS scores by day compared to placebo (T01)” value ([2]; 0.4-0.6 mg/kg BID oral for 7 days) was “lower each day starting on day 1” and the “LS mean owner VAS score” value ([2]; day 7, 0.4-0.6 mg/kg BID oral, time zero about 75 mm, placebo about 55 mm) was “about 25 mm”. For the same compound, the “LS mean owner VAS score” value [3] was “about 18 mm”, the “efficacy for the control of atopic dermatitis including pruritus” value [4] was “excellent efficacy” and the effects observed (laboratory dogs; 0.6 mg/kg BID group) was “few effects”. The “dogs with clinical signs of integument (demodex)” value (laboratory dogs; 3 mg/kg BID, 6 month old laboratory dogs) was 7/8, the “Investigator CADESI score over 112 days, order of treatment groups from highest to lowest” value [5] was “T01 (placebo), T04 (0.2-0.3 mg/kg SID compound 1), T03 (0.4-0.6 mg/kg SID compound 1), and T02 (0.4-0.6 mg/kg BID for 14 days followed by 0.4-0.6 mg/kg SID thereafter)” and the “significant decreases in red blood cell parameters outside normal laboratory reference ranges” value (laboratory-bred dogs; 0.6 mg/kg dose) was “not detected”. For the same compound, the “deaths or other serious adverse events” value (laboratory-bred dogs; 0.6, 1.8 or 3.0 mg/kg oral, BID weeks 1-6 then SID weeks 7-26) was “no observed deaths or other serious adverse events”, the “increase in mean AUC0-12 from Day 0 to Day 21” value ([6]; both, beagle, po) was 40% and the “male/female differences in pharmacokinetic parameters” value [6] was “there did not appear to be any systematic male/female differences”. For the same compound, the “increase in AUC0-12 and Cmax with dose” value ([6]; po, 3 mg/kg) was “dose proportional from 0.6 to 3.0 mg/kg”, the Papp (in vitro) was 40.4 ×10⁻⁶ cm/s and the IC50 [7] was 63 nM to 249 nM and 0.021 µg/mL to 0.084 µg/mL. The IC50 [8] was < 249 nM and < 0.084 µg/mL, the “fold less potent than the JAK1-dependent cytokines (IL-2, 4, 6, 13, and 31)” value [9] was 4-17 fold and the pIC50 (IL-12 and IL-23) was less than 5.52. For the same compound, the “inhibition of cytokine receptor function” value [10] was “inhibits the function”, the inhibition of cytokines [11] was “it does not appear that compound 1 inhibits” and the “impact of breed on pharmacokinetic profile” value [12] was “breed does not impact the pharmacokinetic profile”. For the same compound, the solubility [13] was “practically insoluble”, the solubility (physchem) was 10.4 mg/mL and the calculated fraction absorbed ([14]; based on bioavailability 85%, clearance 4 mL/min/kg, blood flow 40 mL/min/kg) was “greater than 0.9”. The half-life ([14]; dog, plasma) was 4 h, the clearance ([14]; dog, plasma, intravenous) was 4 mL/min/kg and the bioavailability ([14]; dog, plasma, absolute oral bioavailability, mean range, dogs) was 79 to 89%. For the same compound, the bioavailability ([14]; dog, plasma, bioavailability, value used to calculate fraction absorbed) was 85%, the volume of distribution ([14]; dogs) was “moderate volume of distribution” and the “time of mean maximum plasma concentrations post dose” value ([14]; oral administration, dogs) was “approximately 1 hour”.
In the case of C[C@]12C=CC(=O)C=C1CC[C@@H]1[C@@H]2[C@@H](O)C[C@@]2(C)[C@H]1CC[C@]2(O)C(=O)CO [prednisolone, Prednisolone, reference compound], the “LS mean owner VAS score” value [3] was “about 10 mm”.

— patent US9522151B2, “Dosing regimen for Janus Kinase (JAK) inhibitors” (priority 2012, dated 2016)
